The text below walks through data of ChEMBL document CHEMBL2429854, “Influences of hydrocarbon linkers on the receptor binding affinities of gonadotropin-releasing hormone peptides” (Bioorg Med Chem Lett, 2013).

The target in test [1] is T1, Gonadotropin-releasing hormone receptor (Homo sapiens) (UniProt P30968).
T1 sequence (whole entry): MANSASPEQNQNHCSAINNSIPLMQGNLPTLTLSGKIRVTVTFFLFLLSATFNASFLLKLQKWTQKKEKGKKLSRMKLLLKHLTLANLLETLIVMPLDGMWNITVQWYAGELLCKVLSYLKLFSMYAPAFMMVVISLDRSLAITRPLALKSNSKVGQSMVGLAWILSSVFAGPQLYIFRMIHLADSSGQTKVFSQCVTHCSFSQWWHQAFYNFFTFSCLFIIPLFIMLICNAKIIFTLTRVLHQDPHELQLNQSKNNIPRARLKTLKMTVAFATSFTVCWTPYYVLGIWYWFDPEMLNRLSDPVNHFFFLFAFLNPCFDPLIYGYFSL
Kind of test: Displacement of [111In]-DOTA-Aun-(D-Lys6-GnRH) from human GnRH receptor after 3 hrs by gamma-counting. To be noted: concentration not given here.

In test [2] the target is T2, Gonadotropin-releasing hormone receptor (Homo sapiens, UniProt P30968).
T2 sequence (P30968 whole entry): T1 sequence (whole entry)
Put plainly: Displacement of [125I]-[DTrp6]-LH-RH from human GnRH receptor after 3 hrs by gamma counting. (In a radioligand displacement assay an active substance lowers the binding of a labelled ligand.)

As usually defined, the inhibition is the share of the control response that was lost under treatment. `CC(C)C[C@H](NC(=O)[C@@H](CCCCNC(=O)CCCCCCCCCCNC(=O)CN1CCN(CC(=O)O)CCN(CC(=O)O)CCN(CC(=O)O)CC1)NC(=O)[C@H](Cc1ccc(O)cc1)NC(=O)[C@H](CO)NC(=O)[C@H](Cc1c[nH]c2ccccc12)NC(=O)[C@H](Cc1cnc[nH]1)NC(=O)[C@@H]1CCC(=O)N1)C(=O)N[C@@H](CCCNC(=N)N)C(=O)N1CCC[C@H]1C(=O)NCC(N)=O`: the inhibition in test [1] is 85%.

As a reminder, the IC50 is the concentration that gives 50% inhibition. A high value points to weaker potency. The compound `CC(C)C[C@H](NC(=O)[C@@H](CCCCNC(=O)CCCNC(=O)CN1CCN(CC(=O)O)CCN(CC(=O)O)CCN(CC(=O)O)CC1)NC(=O)[C@H](Cc1ccc(O)cc1)NC(=O)[C@H](CO)NC(=O)[C@H](Cc1c[nH]c2ccccc12)NC(=O)[C@H](Cc1cnc[nH]1)NC(=O)[C@@H]1CCC(=O)N1)C(=O)N[C@@H](CCCN=C(N)N)C(=O)N1CCC[C@H]1C(=O)NCC(N)=O` gave an IC50 in test [2] of 134 nM.
